{"source": "patent US20210145838A1", "about": "“SELECTIVE PDE4D INHIBITORS AGAINST DEMYELINATING DISEASES” (Universiteit Hasselt, priority 2018, published 2021)", "test_system": "cuprizone demyelinated mice", "experiment": "In vivo remyelination in cuprizone-demyelinated mice (MBP IHC, mbp qPCR, TEM G ratio)", "design": "species or system mouse", "description": "(§1) FIG. 8: MBP expression in the corpus callosum upon PDE4 inhibition. A) IHC; B no IHC. Forty-two eleven-weeks-old male C57bl6 mice were either subjected to a cuprizone treatment to induce demyelination (n=32) or left without treatment (control; n=10) for six weeks (day 0-42). From day 40 till day 49, the control mice and part of the cuprizone-treated mice (vehicle; n=10) received a vehicle treatment, receiving a s.c. injection with a 1% DMSO in 0.5% methylcellulose solution twice a day. The remaining cuprizone-treated mice received a roflumilast treatment (roflu 1 mg/kg (n=11) or roflu 3 mg/kg (n=11) in vehicle) twice a day from day 40-49. All animals were sacrificed at day 49. Brains were isolated at anteroposterior coordinates from −0.3 to −1.5 mm was cut in the midsagittal plane and used for slicing and immunohistochemistry (IHC) against MBP.\nas §1, with “9:” for “8:”, “hippocampus” for “corpus callosum”, “inhibition.” for “inhibition. A) IHC; B no IHC.”, “immunohistochemistry” for “immunohistochemistry (IHC)”\nFIG. 10: MBP expression in the corpus callosum upon PDE4 inhibition. C57bl6 mice were either subjected to a cuprizone treatment to induce demyelination or left without treatment for six weeks (day 0-42). From day 40 till day 49, the control mice and part of the cuprizone-treated mice received a vehicle treatment, receiving a s.c. injection with a 1% DMSO in 0.5% methylcellulose solution twice a day. The remaining cuprizone-treated mice received a roflumilast treatment (roflu 1 mg/kg or roflu 3 mg/kg in vehicle) twice a day from day 40-49. All animals were sacrificed at day 49. The left part of the corpus callosum at bregma Y-Z was used for TEM and subsequent G ratio measurement. G ratio is the ratio of the inner axonal diameter to the total outer diameter representing myelination of axons (e.g. a higher G ratio represents a demyelination). […] Data are expressed as mean±SEM with. (*p<0.05, **p<0.01, ***p<0.001). Control (n=5), vehicle (n=5), roflu 1 mg/kg (n=7), and roflu 3 mg/kg (n=9).\nFIG. 12: MBP expression in the corpus callosum upon PDE4 inhibition. Thirty-six eleven-weeks-old male C57bl6 mice were either subjected to a cuprizone treatment to induce demyelination (n=27) or left without treatment (control; n=9) for six weeks (day 0-42). From day 40 till day 49, the control mice and part of the cuprizone-treated mice (vehicle; n=9) received a vehicle treatment, receiving a s.c. injection with a 1% DMSO in 0.5% methylcellulose solution twice a day. The remaining cuprizone-treated mice received a gebr32a treatment (gebr32a 0.1 mg/kg (n=9) or gebr32a 0.3 mg/kg (n=9) in vehicle) twice a day from day 40-49. All animals were sacrificed at day 49. Brains were isolated at anteroposterior coordinates from −0.3 to −1.5 mm was cut in the midsagittal plane and used for slicing and immunohistochemistry against MBP.\nFIG. 13. MBP expression in the dendate gyrus upon PDE4D inhibition. Thirty-six eleven-weeks-old male C57bl6 mice were either subjected to a cuprizone treatment to induce demyelination (n=27) or left without treatment (control; n=9) for six weeks (day 0-42). From 20 day 40 till day 49, the control mice and part of the cuprizone-treated mice (vehicle; n=9) received a vehicle treatment, receiving a s.c. injection with a 1% DMSO in 0.5% methylcellulose solution twice a day. […]", "key": {"[1]": {"settings": "0.1 mg/kg s.c. twice a day, day 40-49"}, "[2]": {"settings": "0.3 mg/kg s.c. twice a day, day 40-49, vs vehicle treated mice"}, "[3]": {"settings": "3 mg/kg s.c. twice a day, day 40-49"}, "[4]": {"settings": "3 mg/kg s.c. twice a day, day 40-49, vs vehicle-treated cuprizone mice"}}, "data": [{"compound": "OC(CN1CCOCC1)Cn1ccc(-c2ccc(OC(F)F)c(OC3CCCC3)c2)n1", "note": "(stereo not drawn) [Gebr32a]", "values": [{"measurement": "MBP expression in the corpus callosum (IHC)", "setting": "[1]", "value": "not sufficient to significantly improve MPB expression"}, {"measurement": "MBP expression in the dendate gyrus (IHC)", "setting": "[1]", "value": "not sufficient to significantly improve MPB expression"}, {"measurement": "MBP expression in the corpus callosum (IHC)", "setting": "[2]", "value": "significantly increased MBP expression"}, {"measurement": "MBP expression in the dendate gyrus (IHC)", "setting": "[2]", "value": "significantly increased MBP expression"}, {"measurement": "Remyelination-inducing dosage compared to roflumilast treatment", "setting": "lower dosage, 0.3 mg/kg vs 3 mg/kg", "value": 10, "unit": "fold"}]}, {"compound": "O=C(Nc1c(Cl)cncc1Cl)c1ccc(OC(F)F)c(OCC2CC2)c1", "note": "[roflumilast]", "values": [{"measurement": "Relative mbp gene expression in the corpus callosum (qPCR)", "setting": "1 mg/kg and 3 mg/kg s.c. twice a day, day 40-49", "value": "not altered"}, {"measurement": "G ratio in the corpus callosum (TEM)", "setting": "1 mg/kg s.c. twice a day, day 40-49", "value": "re-establishment of the G ratio to control levels"}, {"measurement": "mbp mRNA expression in the corpus callosum (qPCR) compared to the control", "setting": "1 mg/kg s.c. twice a day, vs non-demyelinated control", "value": "reduced mbp mRNA expression"}, {"measurement": "G ratio in the corpus callosum (TEM)", "setting": "[3]", "value": "re-establishment of the G ratio to control levels"}, {"measurement": "MBP expression in hippocampus CA1 and CA3 (IHC)", "setting": "[3]", "value": "not in the cornu amonis 1 (CA1) or 3 (CA3)"}, {"measurement": "MBP expression in the corpus callosum (IHC)", "setting": "[4]", "value": "increased MBP expression"}, {"measurement": "MBP expression in the dendate gyrus (IHC)", "setting": "[4]", "value": "increased MBP expression"}]}]}
